# From paper PMC3463759 (Clinical cancer research : an official journal of the …, 2012)
# Like-named read-outs stand apart in the source and are kept apart here.
# Assays:
# [1] = for reduction of Cmax: paclitaxel with dasatinib (Cycle 2 Day 1) vs paclitaxel alone (Cycle 1 Day 1)
# clinical = conditions: human, plasma, intravenous
# [2] = paclitaxel alone, Cycle 1 Day 1, N=20
# [3] = paclitaxel alone, Cycle 1 Day 1, N=20, dose-normalized to 175 mg/m^2
# [4] = paclitaxel and dasatinib, Cycle 2 Day 1, N=18
# [5] = paclitaxel and dasatinib, Cycle 2 Day 1, N=18, dose-normalized to 175 mg/m^2
# [6] = paclitaxel with dasatinib vs paclitaxel alone
smiles,measurement,setting,value
CC(=O)O[C@H]1C(=O)[C@@]2(C)[C@H]([C@H](OC(=O)c3ccccc3)[C@]3(O)C[C@H](OC(=O)[C@H](O)[C@@H](NC(=O)c4ccccc4)c4ccccc4)C(C)=C1C3(C)C)[C@]1(OC(C)=O)CO[C@@H]1[C@@H](O)[C@@H]2O [6-OH paclitaxel],inter-individual variability (%CV) for exposure,[1]; in vivo,40–70%
same,"T-HALF, Mean (SD)",[1]; [2],1.26 h
same,"AUC(0-T), Geo Mean (%CV)",[1]; [3],732 (53) ng•h/mL
same,"AUC(INF), Geo Mean (%CV)",[1]; [3],771 (53) ng•h/mL
same,"Cmax, Geo Mean (%CV)",[1]; [3],349 (44) ng/mL
same,"T-HALF, Mean (SD)","[1]; paclitaxel alone, Cycle 1 Day 1, N=20, listed as 6-OH Paclitaxel",1.26 (0.75) h
same,"M/P, metabolite to parent ratio based on dose normalized AUC(INF), Mean (SD)","[1]; paclitaxel alone, N=20",0.06 (0.04)
same,"T-HALF, Mean (SD)",[1]; [4],0.94 h
same,"AUC(0-T), Geo Mean (%CV)",[1]; [5],562 (68) ng•h/mL
same,"AUC(INF), Geo Mean (%CV)",[1]; [5],615 (68) ng•h/mL
same,"Cmax, Geo Mean (%CV)",[1]; [5],260 (58) ng/mL
same,"T-HALF, Mean (SD)","[1]; paclitaxel and dasatinib, Cycle 2 Day 1, N=18, listed as 6-OH Paclitaxel",0.94 (0.47) h
same,"M/P, metabolite to parent ratio based on dose normalized AUC(INF), Mean (SD)","[1]; paclitaxel and dasatinib, N=18",0.05 (0.02)
same,reduction of Cmax,[1],25%
same,reduction of geometric mean AUC(0-T),[1]; [6],23%
same,reduction of geometric mean AUC(INF),[1]; [6],20%
same,reduction of mean T-HALF,[1]; [6],25%
CC(=O)O[C@H]1C(=O)[C@@]2(C)[C@H]([C@H](OC(=O)c3ccccc3)[C@]3(O)C[C@H](OC(=O)[C@H](O)[C@@H](NC(=O)c4ccccc4)c4ccccc4)C(C)=C1C3(C)C)[C@]1(OC(C)=O)CO[C@@H]1C[C@@H]2O [paclitaxel],MRT inf,clinical,6.9 h
same,Vd,clinical,163 L
same,AUC(0-inf),clinical; 175 mg/m^2,16.1 µg·h/mL
same,AUC(0-t),clinical; 175 mg/m^2,15.7 µg·h/mL
same,Cmax,clinical; 175 mg/m^2,4.82 µg/mL
same,MRT inf,clinical; 175 mg/m^2,6.7 h
same,"differences in mean T-HALF, MRT(INF), CLt, and Vss",[1]; paclitaxel alone vs paclitaxel in combination with dasatinib,less than 20%
same,"CLt, Mean (SD)",[1]; [2],20.9 (6.3) L/h
same,"T-HALF, Mean (SD)",[1]; [2],11.7 (1.6) h
same,"CLt, Mean (SD)",[1]; [4],24.3 (6.0) L/h
same,"T-HALF, Mean (SD)",[1]; [4],11.7 (3.8) h
same,reduction of Cmax,[1],19%
same,reduction of geometric mean AUC(0-T),[1]; [6],15%
same,reduction of geometric mean AUC(INF),[1]; [6],14%
